Results taken from US9458095B2, “Oligo-benzamide compounds and their use in treating cancers” (The Board of Regents of the University of Texas System, priority 2011, dated 2016).
“Also recorded” adds a separate entry of the source.

Tests used:
Assay type in all cases: cell-based
WxxLF motif on AR = test: Gal4-3WxxLF and AR-Gal4 (hARGAL4/PSAenhGAL4-luc) luciferase reporter assays; details: 100 nM peptidomimetic, 48 h, absence of androgens
Protocol: FIGS. 1A-D. Oligobenzamide control of C4-2 cell proliferation. (FIG. 1A) Chemical structure of T6. (FIG. 1B) C4-2 cells were transiently transfected with Gal4-3WxxLF promoter or (FIG. 1C) with synthetic hARGAL4 and the PSAenhGAL4-luc reporter. Cells were maintained for 48 h in the absence of androgens and with either 100 nM of peptidomimetic or volume equivalent of vehicle (DMSO) control and luciferase activity measured. (FIG. 1D) Peptidomimetics knocked down ligand independent proliferation in C4-2 cells
Ligand independent activation involves the WxxLF motif, whose tertiary structure has not been crystallographically resolved. Indeed, binding partners of AR through this WxxLF motif have not been determined. […] Based on this model, the inventors designed three peptidomimetics T6, T21 and T26 to mimic the ^435WxxLF^439 motif on AR and to target PPIs through this domain (FIG. 1A). The screening strategy involved the use of synthetic Gal4-3WxxLF (Gal4 reporter driven by 3 copies of the WxxLF motif) (FIG. 1B) and AR-Gal4 constructs (wt AR with its DNA binding domain replaced by Gal4 DNA binding domain) (from Dr. Dehm, U. Minnesota) (FIG. 1C) […]. T21, T26, or T6 (but not the control T6R) knocked down the basal ligand independent transcription from this WxxLF driven promoters. Further, these peptidomimetics abrogated ligand independent proliferation of C4-2 cells (FIG. 1D).

ARwt = molecular target: T1, ARwt (Homo sapiens, UniProt P10275); test: ARE-luciferase reporter in PC-3 cells expressing ARwt; details: 1 nM DHT, 100 nM peptidomimetic, 48 h
T1 construct: expressed in transfected cells; host or cells: PC-3 cells (A3); M12 cells (A8)
T1 sequence (P10275 1-920): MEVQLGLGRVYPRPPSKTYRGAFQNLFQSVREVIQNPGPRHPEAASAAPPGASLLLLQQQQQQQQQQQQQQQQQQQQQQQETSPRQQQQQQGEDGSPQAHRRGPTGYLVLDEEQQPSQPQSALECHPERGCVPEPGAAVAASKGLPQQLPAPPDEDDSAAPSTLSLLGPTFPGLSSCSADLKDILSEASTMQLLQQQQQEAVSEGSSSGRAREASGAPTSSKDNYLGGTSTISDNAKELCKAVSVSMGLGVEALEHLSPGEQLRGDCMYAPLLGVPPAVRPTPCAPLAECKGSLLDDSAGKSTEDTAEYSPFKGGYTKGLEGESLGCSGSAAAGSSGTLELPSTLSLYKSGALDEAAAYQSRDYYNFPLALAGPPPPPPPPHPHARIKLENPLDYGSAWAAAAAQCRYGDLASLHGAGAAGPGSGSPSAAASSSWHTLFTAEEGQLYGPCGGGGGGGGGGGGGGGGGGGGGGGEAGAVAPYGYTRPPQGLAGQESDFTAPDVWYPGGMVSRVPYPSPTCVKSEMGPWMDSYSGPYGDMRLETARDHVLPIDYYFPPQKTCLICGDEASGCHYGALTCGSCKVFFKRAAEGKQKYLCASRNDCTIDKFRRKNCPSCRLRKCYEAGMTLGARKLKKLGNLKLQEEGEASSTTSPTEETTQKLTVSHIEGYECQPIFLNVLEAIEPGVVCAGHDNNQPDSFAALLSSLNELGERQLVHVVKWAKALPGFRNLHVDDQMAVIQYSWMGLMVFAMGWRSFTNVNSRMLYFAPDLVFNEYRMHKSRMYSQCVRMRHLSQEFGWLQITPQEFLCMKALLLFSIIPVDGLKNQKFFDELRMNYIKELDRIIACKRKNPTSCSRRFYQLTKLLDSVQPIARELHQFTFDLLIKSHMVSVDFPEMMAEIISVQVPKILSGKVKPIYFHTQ
Protocol: FIGS. 2A-D. Oligobenzamide control of PC3 cell proliferation. (FIG. 2A) Structure of AR deletion mutants with numbered exons (FIG. 2B) Effect of D2 and T6 on basal (AI) and AD transcription. PC-3 cells were transiently transfected with ARE-luciferase along with plasmids expressing ARwt (FIG. 2B), ARv7 (FIG. 2C) or ARΔ1 (FIG. 2D). Cells were maintained for 48 h either without (EtOH) or with (1 nM DHT) and in the presence of 100 nM of peptidomimetic or volume equivalent of vehicle (DMSO) control. Luciferase assay results are shown. Data is normalized to the basal level of expression with AR wt in PC3 cells.
Since the WxxLF motif is also present in the truncated forms of the androgen receptor, the inventors then evaluated the ability of the peptidomimetics to block ARv7-driven transcription from a minimal ARE luciferase reporter. […] These findings were confirmed with a synthetic AR with point mutations in the WxxLF motif (data not shown).

[1] = tested on: ARE activity in CWR22v1 cells (ARwt and ARv7); test: ARE-luciferase reporter in CWR22v1 cells
Protocol: FIG. 4. Effect of T6 on basal level of ARE expression in CWR22v1 cells. CWR22v1 cells were transiently transfected with ARE-luciferase. Cells were maintained for 48 h without (EtOH) and in the presence of 100 nM of peptidomimetic or volume equivalent of vehicle (DMSO) control or 10 μM of casodex or MDV3100.

wtAR = molecular target: T2, wtAR (Homo sapiens, UniProt P10275); test: Rat probasin-luciferase reporter in M12 cells with ARwt; details: 100 nM peptidomimetic, 48 h
T2 construct: expressed in transfected cells; host or cells: PC-3 cells (A3); M12 cells (A8)
T2 sequence (P10275 1-920): T1 sequence (P10275 1-920)
Protocol: FIG. 5. Effect of T6 on basal level of ARE expression in M12 cells. M12 cells were transiently transfected with the rat probasin-luciferase reporter and either ARwt or ARv7. Cells were maintained for 48 h without (EtOH) and in the presence of 100 nM of peptidomimetic or volume equivalent of vehicle (DMSO) control or 10 μM of MDV3100. Luciferase assay results are shown.

basal ligand independent transcription from WxxLF driven promoters (WxxLF motif on AR): knocked down
Ligand dependent transcription mediated by ARwt (ARwt): able to suppress
expression of rat probasin reporter in M12 cells driven by wtAR (wtAR): able to independently knock down
SMILES: CC(C)COc1cc(C(N)=O)ccc1NC(=O)c1ccc(NC(=O)c2ccc([N+](=O)[O-])c(OCCc3ccc4ccccc4c3)c2)c(OCC(C)C)c1 [T6]
basal transcription from minimal ARE luciferase in CWR22v1 cells (driven by ARv7) ([1]; 100 nM peptidomimetic, 48 h, without androgen (EtOH)): able to suppress; also recorded: abrogated
DHT-induced transcription from minimal ARE luciferase in CWR22v1 cells ([1]; DHT): able to suppress
